Data set [1] has as its system VSV-SOmicron (S protein of SARS-CoV-2 Omicron BA.1). As to the kind of experiment: organism not typed. It is filed as cell-based.
The subject of data set [2] is VSV-G (VSV pseudotyped with its native glycoprotein). Type of data set: cell-based, vesicular stomatitis virus.
Data set [3] has as its target binding of human ACE2 catalytic domain to RBD (Severe acute respiratory syndrome coronavirus 2, UniProt P0DTC2). Set-up: species or system SARS-CoV-2 / human.
The target of data set [4] is T1, SARS-CoV-2 RBD (Severe acute respiratory syndrome coronavirus 2, UniProt P0DTC2). Type of data set: binding.
In data set [5] the test system is VSV-S (pseudotyped VSV carrying the S protein of Wuhan-Hu-1 SARS-CoV-2). The data set can be described thus: microbe, parasite or virus in culture. Type of data set: cell-based.
Data set [6] shares this test system. The data set can be described thus: microbe, parasite or virus in culture. The following applies: read-out: IC50 (concentration at which virus infection is reduced by 50%), VSV-S in A549-ACE2-TMPRSS2 cells. Type of data set: cell-based.
Another data set deals with VSV-SWuhan-Hu-1. The data set can be described thus: microbe, parasite or virus in culture. It is filed as cell-based, SARS-CoV-2. As to conditions: Vesicular stomatitis virus, VeroE6/TMPRSS2, read-out: IC50 ± SD, pseudotyped VSV carrying S of Wuhan-Hu-1.
Data set [7] in a line: in vitro. The following applies: human.
Data set [8] can be described thus: in vitro. As to conditions: African green monkey.
The target in data set [9] is T1, SARS-CoV-2 RBD. The data set can be described thus: biochemical. Type of data set: binding.
Where [10] appears, read: read-out: IC50 ± SD, pseudotyped VSV carrying S of Omicron BA.1.
Setting [11] is: Vesicular stomatitis virus, Vero C1008, read-out: IC50 (concentration at which virus infection is reduced by 50%), VSV-S in Vero E6 cells.
Setting [12] is: read-out: IC50 (concentration at which virus infection is reduced by 50%), VSV-S in Vero E6 cells.
Where [13] appears, read: VeroE6/TMPRSS2, read-out: IC50 ± SD, pseudotyped VSV carrying S of Omicron BA.1.

“Also recorded” adds a separate entry of the source. Read-outs that look alike come from different tables or passages of the source.

In the case of `NCC(=O)NC(CCC(=O)NC(Cc1c(Sc2ccc([N+](=O)[O-])cc2)[nH]c2ccccc12)C(=O)O)(CCC(=O)NC(Cc1c(Sc2ccc([N+](=O)[O-])cc2)[nH]c2ccccc12)C(=O)O)CCC(=O)NC(Cc1c(Sc2ccc([N+](=O)[O-])cc2)[nH]c2ccccc12)C(=O)O` (stereo not shown) [Compound 2], the IC50 in data set [1] (setting [10]) amounted to 21.7 ± 0.83 µM; in data set [5] (setting [11]), 0.64 ± 0.47 µM; in data set [5] (Vesicular stomatitis virus, Vero C1008, read-out: IC50, compound preincubated with the cells), 0.32 µM; in data set [5] (Vesicular stomatitis virus, Vero C1008, read-out: IC50, compound preincubated with the virus) it was 0.48 µM; in data set [5] (setting [12]), 0.6 ± 0.5 µM; in data set [6] (Vesicular stomatitis virus), 1 ± 0.4 µM. For the same compound, the IC50 with VSV-SWuhan-Hu-1 stood at 0.08 ± 0.07 µM. The “antiviral activity against VSV-G” value in [2] is listed as “no antiviral activity”. The “increase of ACE2 concentrations needed for binding to the RBD” value in [3] was roughly 10 fold. Further, the “effect on thermofluor fluorescence profile / thermal stability of RBD (in words)” value at SARS-CoV-2 RBD [4] is “shift of the curve toward lower temperatures”. Also, in [5], the “infection (viral GFP reporter) when compound added one-hour post virus addition” value was “no decrease in infection”. Moreover, the “infection (viral GFP reporter) when compound added together with the virus” value in data set [5] is listed as “strong reduction in infection”. Further, the “primary HTS screening result (in words)” value in data set [5] is listed as “significant antiviral activity in the absence of cytotoxicity”. The CC50 in the data set “in vitro [7]” and in the data set “in vitro [8]” was greater than 100 µM each time.

As a reminder, the Kd is a measure of binding affinity in units of concentration. As for `CS(=O)(=O)c1ccc(Sc2[nH]c3ccccc3c2CC(NC(=O)CCC(CCC(=O)NC(Cc2c(Sc3ccc(S(C)(=O)=O)cc3)[nH]c3ccccc23)C(=O)O)(CCC(=O)NC(Cc2c(Sc3ccc(S(C)(=O)=O)cc3)[nH]c3ccccc23)C(=O)O)NC(=O)CN)C(=O)O)cc1` (stereo not shown) [Compound 42], at SARS-CoV-2 RBD [4], the “effect on thermofluor fluorescence profile / thermal stability of RBD (in words)” value is recorded as “did not cause any change in the curve; also recorded: no effect on the thermal stability of the RBD”. The “antiviral activity in the VSV-S assay (in words)” value in data set [5] is listed as “no antiviral activity”. Moreover, the IC50 in [5] (setting [11]) is greater than 50 µM. On SARS-CoV-2 RBD [9], this compound gave a Kd of no less than 2500 µM. The compound also returned a CC50 in “in vitro [8]” greater than 100 µM.

On to `O=C(O)CCCCC(=O)NCC(=O)NC(CCC(=O)NC(Cc1c(Sc2ccc([N+](=O)[O-])cc2)[nH]c2ccccc12)C(=O)O)(CCC(=O)NC(Cc1c(Sc2ccc([N+](=O)[O-])cc2)[nH]c2ccccc12)C(=O)O)CCC(=O)NC(Cc1c(Sc2ccc([N+](=O)[O-])cc2)[nH]c2ccccc12)C(=O)O` (stereo not shown) [Compound 61], for which the “effect on thermofluor fluorescence profile / thermal stability of RBD (in words)” value at SARS-CoV-2 RBD [4] was “shift of the curve toward lower temperatures”. The IC50 was roughly 2 µM in data set [5] (setting [11]), 2.1 ± 1.5 µM in data set [5] (setting [12]), roughly 2 µM in data set [6] (Vesicular stomatitis virus) and 2.3 ± 0.8 µM in data set [6]. The CC50 in “in vitro [7]” and in “in vitro [8]” was greater than 100 µM each time.

With `NCCOCCOCCC(=O)NCC(=O)NC(CCC(=O)NC(Cc1c(Sc2ccc([N+](=O)[O-])cc2)[nH]c2ccccc12)C(=O)O)(CCC(=O)NC(Cc1c(Sc2ccc([N+](=O)[O-])cc2)[nH]c2ccccc12)C(=O)O)CCC(=O)NC(Cc1c(Sc2ccc([N+](=O)[O-])cc2)[nH]c2ccccc12)C(=O)O` (stereo not shown) [Compound 63], the IC50 was found to be 25.4 µM in data set [1] (setting [13]), 0.7 ± 0.9 µM in data set [5] (setting [11]), 1.4 ± 1.1 µM in [6] (Vesicular stomatitis virus) and 0.01 µM with VSV-SWuhan-Hu-1. The CC50 in “in vitro [7]” and in “in vitro [8]” was greater than 100 µM throughout.

`O=C(CCOCCOCCOCCOCCC(=O)NCC(=O)NC(CCC(=O)NC(Cc1c(Sc2ccc([N+](=O)[O-])cc2)[nH]c2ccccc12)C(=O)O)(CCC(=O)NC(Cc1c(Sc2ccc([N+](=O)[O-])cc2)[nH]c2ccccc12)C(=O)O)CCC(=O)NC(Cc1c(Sc2ccc([N+](=O)[O-])cc2)[nH]c2ccccc12)C(=O)O)NCC(=O)NC(CCC(=O)NC(Cc1c(Sc2ccc([N+](=O)[O-])cc2)[nH]c2ccccc12)C(=O)O)(CCC(=O)NC(Cc1c(Sc2ccc([N+](=O)[O-])cc2)[nH]c2ccccc12)C(=O)O)CCC(=O)NC(Cc1c(Sc2ccc([N+](=O)[O-])cc2)[nH]c2ccccc12)C(=O)O` (stereo not shown) [Compound 65]: the IC50 was 6.24 ± 0.16 µM in data set [1] (setting [13]); less than 10 µM in data set [1] (setting [10]); 0.28 ± 0.23 µM in [5] (setting [11]); 0.3 ± 0.2 µM in data set [5] (setting [12]); 15.8 ± 1.5 µM in [6] (Vesicular stomatitis virus); 0.28 ± 0.23 µM with VSV-SWuhan-Hu-1. Further, the “increase of ACE2 concentrations needed for binding to the RBD” value in [3] is roughly 10 fold. The “effect on thermofluor fluorescence profile / thermal stability of RBD (in words)” value at SARS-CoV-2 RBD [4] is recorded as “shift of the curve toward lower temperatures”. In addition, the CC50 in “in vitro [7]” and in the data set “in vitro [8]” was greater than 100 µM throughout.

(Values after paper PMC10424185, “C-2 Thiophenyl Tryptophan Trimers Inhibit Cellular Entry of SARS-CoV-2 through Interaction with the Viral Spike (S) Protein” (Journal of Medicinal Chemistry, 2023).)
